# Reference: paper PMC10111423, “Antimalarial Imidazopyridines Incorporating an Intramolecular Hydrogen Bonding Motif: Medicinal Chemistry and Mechanistic Studies” (ACS Infectious Diseases, 2023)
# pIC50: −log10 of the molar value.
# Key:
# [1] = test system: chloroquine-sensitive (NF54) strain of P. falciparum; assay: In vitro asexual blood-stage antiplasmodium pLDH assay, NF54 strain; type: cell-based; conditions: Plasmodium falciparum, NF54; pLDH, 72 h, n ≥ 3; read-out: In vitro antiplasmodium activity IC50 PfNF54 strain
# Description: Compounds were screened against multi-drug-resistant (K1) and sensitive (NF54) strains of P. falciparum in vitro using a parasite lactate dehydrogenase assay (pLDH) (the method is described fully in the Supporting Information). […]
# In vitro Asexual Blood Stage Antiplasmodium Assay
# Parasites were cultured as per the method of Trager and Jensen,1 with modifications. IC50 values were determined using parasite lactate dehydrogenase as a marker for survival (Makler […]
# et al, 1993). The test samples were prepared to a 10 mmol/L stock solution in 100% DMSO.
# Samples were tested as a suspension if not completely dissolved. Further dilutions to the desired starting concentration were freshly prepared in growth media on each occasion of the experiment. The standard antimalarial drugs chloroquine (CQ) and artesunate (Arts) were used as the reference drug in all experiments. A full dose-response was performed for all compounds in a 96-well plate to determine the concentration inhibiting 50% of parasite growth (IC50– value). Test samples were tested at a starting concentration of 6mmol/L, which was then serially diluted 2-fold in growth medium to generate the tested concentration range. The same dilution technique was used for all samples. CQ and Arts were tested from a starting concentration of 1µg/mL. The highest concentration of solvent to which the parasites were exposed was <0.1% and has no measurable effect on the parasite viability (data not shown).
# The assay plate was incubated at 37 °C for 72h in a sealed gas chamber under 3% O2 and 4% CO2 with the balance being N2. After 72h, the wells in the assay plate were gently resuspended, and 15µL from each well was transferred to a duplicate plate containing 100µL of Malstat reagent and 25µL of nitroblue tetrazolium solution in each well. Plates were left to develop for 20 minutes in the dark and then absorbance of each well was quantified using a spectrophotometer at 620nm wavelength.
# The remaining population of parasites at each concentration of the test compound was determined by comparing the absorbance of each well to the absorbance of a well containing […]
# the drug-free control. […]
# The initial 100 µg/mL solution is serially diluted 10-
# [2] = In vitro microsomal stability, human liver microsomes; type: in vitro ADME; conditions: 1 μM, 0.4 mg/mL protein
# Description: Xenotech, Kansas, USA), suspended in 0.1 M phosphate buffer (pH 7.4). (Details of this assay are described in the Supporting Information.) page 20: fold to attain six assay concentrations of 100-0.001 μg/mL. […] was used as the reference compound in this assay. The highest concentration of DMSO, which was used as the negative control, had no measurable effect on cell viability. After 44 hours of exposure of the cells to the test compounds, a solution of MTT was added. This was followed by an additional 4 hours of incubation at 37 °C. The assay plates were centrifuged, medium removed, and DMSO was added to the crystals. The amount of formazan was ascertained by measuring the absorbance at 540 nm. GraphPad Prism software was then used to generate IC50 values through a non-linear dose-response curve analysis. β-Hematin Inhibition Assay 20 mM stock solutions of controls and test compounds were made in DMSO. A solution […] was added to every well in columns 1-11 of a 96-well plate. 140 μL of water and 40 μL of 305.5 μM NP-40 were added to column 12 to mediate the formation of beta-hematin. 20 μL of test compounds (20 mM) were added to column 12 and 100 μL of this solution serially diluted to column 2, leaving column 1 blank (0 μM of test compound). 178.8 μL aliquot of hematin stock was suspended in 20 ml of a 1 M acetate buffer at pH 4.9. 100 μL of this hematin suspension was then added into each well, and the plates were incubated for ±5 hrs at 37°C. Subsequently, 32 μL of pyridine solution (20% water, 20% acetone, 10% 2M HEPES buffer at pH 7.4 and 50% pyridine) and 60 μL of acetone were added to all wells. The absorbances of plate wells were recorded at 405 nm on a SpectraMax plate reader. Sigmoidal dose-response curves with variable slopes were fitted to the absorbance data using GraphPad Prism to obtain the IC50 values for each compound. In vitro Microsomal Stability Assay The in vitro microsomal stability assay was performed in duplicate in a 96-well micro titre […] individually in human (pool of 50, mixed gender), rat (pool of 711, male Sprague Dawley) and mouse (pool of 1634, male CD1) liver microsomes (final protein concentration of 0.4 mg/mL; Xenotech, Kansas, USA), suspended in 0.1M phosphate buffer (pH 7.4). Incubations were S20 page 21: started by addition of NADPH (1 mM) as cofactor and shaken for 30 minutes at 37 °C. The reactions were then quenched by adding 300 μL of ice-cold acetonitrile containing internal standard (carbamazepine, 0.0236 μg/mL) and centrifuged. The supernatant was transferred to a fresh 96-well plate and analysed by LC-MS/MS (Agilent Rapid Resolution HPLC, AB SCIEX 4500 MS). The relative loss of parent compound over time was monitored and plots (concentration vs. time) were prepared per compound to determine the first order rate constant for compound depletion. This was in turn used to calculate half-life, in vitro intrinsic clearance and in vivo hepatic extraction ratio.6 Metabolite Identification Studies […] microsomes (MLM, male mouse CD1, Lot No. 1510043, Xenotech), magnesium chloride (5 mM) and NADPH (1 mM) in sodium phosphate buffer (100 mM, pH 7.4) for 60 minutes while shaking. The samples were then prepared by ice-cold acetonitrile precipitation, centrifuged, and filtered for LC-MS/MS analysis. […] Fluorescence Live-cell Microscopy […] […]
Structure (SMILES),pIC50 [1],"Microsomal EH (hepatic extraction ratio), human [2]"
"CCN(CCNc1cc2[nH]c(C3CC3)nc2cn1)Cc1ccc(Cl)cc1O [Compound 5, 5-Chloro-2-(((2-((2-cyclopropyl-1H-imidazo[4,5-c]pyridin-6-yl)amino)ethyl)(ethyl)amino)methyl)phenol]",6.41,0.54
"CCN(CCNc1cc2[nH]c(-c3cccc(C(F)(F)F)c3)nc2cn1)Cc1ccc(Cl)cc1O [Compound 14, 5-Chloro-2-((ethyl(2-((2-(3-(trifluoromethyl)phenyl)-1H-imidazo[4,5-c]pyridin-6-yl)amino)ethyl)amino)methyl)phenol]",7.10,0.85
"CCN(CCNc1cc2[nH]c(C3CCCC3)nc2cn1)Cc1ccc(Cl)cc1O [Compound 1, 5-Chloro-2-(((2-((2-cyclopentyl-1H-imidazo[4,5-c]pyridin-6-yl)amino)ethyl)(ethyl)amino)methyl)phenol]",6.47,0.60

# More lines, in order of rising pIC50 [1], values ahead:
pIC50 [1],"Microsomal EH (hepatic extraction ratio), human [2]",Structure (SMILES)
6.31,0.71,"CCN(CCNc1cc2[nH]c(C3(C)CC3)nc2cn1)Cc1ccc(Cl)cc1O [Compound 6, 5-Chloro-2-((ethyl(2-((2-(1-methylcyclopropyl)-1H-imidazo[4,5-c]pyridin-6-yl)amino)ethyl)amino)methyl)phenol]"
6.42,0.80,"CCN(CCNc1cc2[nH]c(-c3ccc(C(F)(F)F)nc3)nc2cn1)Cc1ccc(Cl)cc1O [Compound 19, 5-Chloro-2-((ethyl(2-((2-(6-(trifluoromethyl)pyridin-3-yl)-1H-imidazo[4,5-c]pyridin-6-yl)amino)ethyl)amino)methyl)phenol]"
